Experimental data from ChEMBL document CHEMBL4390652, “Design, biological evaluation and X-ray crystallography of nanomolar multifunctional ligands targeting simultaneously acetylcholinesterase and glycogen synthase kinase-3” (Eur J Med Chem, 2019).

How the values were obtained:
[1] = target: Tyrosine-protein kinase Blk (Homo sapiens) (UniProt P51451); test: Binding affinity to wild-type human partial length BLK (G211 to L503 residues) expressed in bacterial expression system assessed as residual binding level at 10 uM by Kinomescan method relative to control
[2] = target: Aurora kinase A (Homo sapiens) (UniProt O14965); test: Binding affinity to wild-type human partial length AURKA (E122 to K401 residues) expressed in mammalian expression system assessed as residual binding level at 10 uM by Kinomescan method relative to control
[3] = target: Calcium/calmodulin-dependent protein kinase type II subunit beta (Homo sapiens) (UniProt Q13554); test: Binding affinity to wild-type human partial length CAMK2B (M1 to Q380 residues) expressed in bacterial expression system assessed as residual binding level at 10 uM by Kinomescan method relative to control
[4] = target: Myosin light chain kinase, smooth muscle (Homo sapiens) (UniProt Q15746); test: Binding affinity to wild-type human full length MYLK (M854 to E1845 residues) expressed in mammalian expression system assessed as residual binding level at 10 uM by Kinomescan method relative to control
[5] = target: Ribosomal protein S6 kinase beta-1 (Homo sapiens) (UniProt P23443); test: Binding affinity to wild-type human partial length S6K1 (M1 to S421 residues) expressed in mammalian expression system assessed as residual binding level at 10 uM by Kinomescan method relative to control
Sequence of Ribosomal protein S6 kinase beta-1 (Homo sapiens) (P23443 whole entry, looked up, the tested form may be a part): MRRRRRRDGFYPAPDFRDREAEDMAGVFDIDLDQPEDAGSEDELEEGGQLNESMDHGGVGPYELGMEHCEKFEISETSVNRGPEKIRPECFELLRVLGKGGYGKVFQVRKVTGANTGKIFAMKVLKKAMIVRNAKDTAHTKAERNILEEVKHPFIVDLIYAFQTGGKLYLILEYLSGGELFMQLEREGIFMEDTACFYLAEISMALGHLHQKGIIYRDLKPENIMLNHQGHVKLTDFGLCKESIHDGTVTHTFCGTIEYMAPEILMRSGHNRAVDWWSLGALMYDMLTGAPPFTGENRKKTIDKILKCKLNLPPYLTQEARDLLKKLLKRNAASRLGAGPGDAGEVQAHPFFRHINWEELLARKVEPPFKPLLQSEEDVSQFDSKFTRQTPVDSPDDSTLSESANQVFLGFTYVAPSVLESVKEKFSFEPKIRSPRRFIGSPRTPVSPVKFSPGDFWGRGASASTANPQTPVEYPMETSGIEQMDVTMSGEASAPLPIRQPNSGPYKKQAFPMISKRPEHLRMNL

[6] = target: Mitogen-activated protein kinase 14 (Homo sapiens) (UniProt Q16539); test: Binding affinity to wild-type human full length p38-alpha (M1 to S360 residues) expressed in bacterial expression system assessed as residual binding level at 10 uM by Kinomescan method relative to control
[7] = target: Calcium-dependent protein kinase 1 (Plasmodium falciparum) (UniProt P62344); test: Binding affinity to wild-type Plasmodium falciparum full length CDPK1 (M1 to S524 residues) expressed in mammalian expression system assessed as residual binding level at 10 uM by Kinomescan method relative to control
[8] = target: Testis-specific serine/threonine-protein kinase 1 (Homo sapiens) (UniProt Q9BXA7); test: Binding affinity to wild-type human full length TSSK1B (M1 to Q367 residues) expressed in bacterial expression system assessed as residual binding level at 10 uM by Kinomescan method relative to control
Sequence of Testis-specific serine/threonine-protein kinase 1 (Homo sapiens) (Q9BXA7 whole entry, the tested form may be a part): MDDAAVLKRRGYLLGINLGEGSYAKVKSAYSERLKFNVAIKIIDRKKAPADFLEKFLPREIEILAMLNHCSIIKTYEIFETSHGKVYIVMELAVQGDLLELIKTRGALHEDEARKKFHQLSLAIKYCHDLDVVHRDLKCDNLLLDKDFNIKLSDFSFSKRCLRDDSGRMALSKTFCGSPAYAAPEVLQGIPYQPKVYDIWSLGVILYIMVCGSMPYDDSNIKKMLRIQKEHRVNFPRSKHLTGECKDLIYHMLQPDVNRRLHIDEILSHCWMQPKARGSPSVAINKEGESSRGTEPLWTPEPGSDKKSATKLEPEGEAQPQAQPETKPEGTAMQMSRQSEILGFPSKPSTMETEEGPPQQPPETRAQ

[9] = test system: Epidermal growth factor receptor (Homo sapiens), P00533 [UNDEFINED MUTATION]; test: Binding affinity to human partial length EGFR E746-A750del mutant expressed in bacterial expression system assessed as residual binding level at 10 uM by Kinomescan method relative to control
Sequence of Epidermal growth factor receptor (Homo sapiens), P00533 [UNDEFINED MUTATION] (P00533 whole entry, looked up, stated change not applied, the tested form may be a part): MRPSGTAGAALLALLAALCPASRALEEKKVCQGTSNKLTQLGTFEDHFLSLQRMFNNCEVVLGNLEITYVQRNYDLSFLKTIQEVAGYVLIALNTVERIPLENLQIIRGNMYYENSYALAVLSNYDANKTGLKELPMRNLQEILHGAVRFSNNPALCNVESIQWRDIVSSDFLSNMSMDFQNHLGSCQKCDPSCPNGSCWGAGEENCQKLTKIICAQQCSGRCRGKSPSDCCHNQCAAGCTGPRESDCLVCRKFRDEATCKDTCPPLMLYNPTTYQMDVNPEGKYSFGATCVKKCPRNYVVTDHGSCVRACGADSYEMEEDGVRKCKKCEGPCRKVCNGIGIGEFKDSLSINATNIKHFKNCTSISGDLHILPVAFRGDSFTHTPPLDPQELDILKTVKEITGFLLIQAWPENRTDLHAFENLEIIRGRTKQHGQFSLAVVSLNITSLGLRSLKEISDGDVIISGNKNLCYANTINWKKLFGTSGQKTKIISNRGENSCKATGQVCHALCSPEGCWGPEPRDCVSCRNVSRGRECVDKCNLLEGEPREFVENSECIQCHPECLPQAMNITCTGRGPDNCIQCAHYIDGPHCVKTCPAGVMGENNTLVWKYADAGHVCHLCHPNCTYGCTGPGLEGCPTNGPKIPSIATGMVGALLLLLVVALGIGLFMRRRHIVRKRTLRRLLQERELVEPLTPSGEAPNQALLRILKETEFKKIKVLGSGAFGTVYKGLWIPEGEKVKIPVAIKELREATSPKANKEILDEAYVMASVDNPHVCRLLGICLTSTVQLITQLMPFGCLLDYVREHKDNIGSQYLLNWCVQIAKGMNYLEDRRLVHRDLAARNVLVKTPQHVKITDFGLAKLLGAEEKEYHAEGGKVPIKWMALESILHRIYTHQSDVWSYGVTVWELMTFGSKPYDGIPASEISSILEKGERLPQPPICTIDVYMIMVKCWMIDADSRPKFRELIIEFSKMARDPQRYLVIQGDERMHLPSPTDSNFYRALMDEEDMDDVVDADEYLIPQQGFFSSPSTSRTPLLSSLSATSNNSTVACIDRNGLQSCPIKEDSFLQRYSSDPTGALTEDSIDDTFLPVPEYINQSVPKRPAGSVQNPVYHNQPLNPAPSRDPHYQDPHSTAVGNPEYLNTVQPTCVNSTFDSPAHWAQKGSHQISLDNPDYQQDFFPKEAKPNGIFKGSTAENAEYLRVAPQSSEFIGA

[10] = target: TGF-beta receptor type-2 (Homo sapiens) (UniProt P37173); test: Binding affinity to wild-type human partial length TGFBR2 (I218 to K567 residues) expressed in bacterial expression system assessed as residual binding level at 10 uM by Kinomescan method relative to control
[11] = target: Serine/threonine-protein kinase NIM1 (Homo sapiens) (UniProt Q8IY84); test: Binding affinity to wild-type human partial length NIM1 (Q44 to N355 residues) expressed in mammalian expression system assessed as residual binding level at 10 uM by Kinomescan method relative to control
[12] = target: Serine/threonine-protein kinase SIK1 (Homo sapiens) (UniProt P57059); test: Binding affinity to wild-type human partial length SIK (M1 to Y304 residues) expressed in bacterial expression system assessed as residual binding level at 10 uM by Kinomescan method relative to control
[13] = test system: Phosphatidylinositol 4,5-bisphosphate 3-kinase catalytic subunit alpha isoform (Homo sapiens), P42336 [Q546K]; test: Binding affinity to human partial length PIK3CA Q546K mutant (R108 to N1068 residues) expressed in mammalian expression system assessed as residual binding level at 10 uM by Kinomescan method relative to control
[14] = target: Tyrosine-protein kinase Lck (Homo sapiens) (UniProt P06239); test: Binding affinity to wild-type human partial length LCK (R207 to P509 residues) expressed in bacterial expression system assessed as residual binding level at 10 uM by Kinomescan method relative to control
[15] = target: Cyclin-dependent kinase-like 3 (Homo sapiens) (UniProt Q8IVW4); test: Binding affinity to wild-type human partial length CDKL3 (M1 to D327 residues) expressed in bacterial expression system assessed as residual binding level at 10 uM by Kinomescan method relative to control
[16] = target: Insulin receptor (Homo sapiens) (UniProt P06213); test: Binding affinity to wild-type human partial length INSR (P997 to E1318 residues) expressed in mammalian expression system assessed as residual binding level at 10 uM by Kinomescan method relative to control
Sequence of Insulin receptor (Homo sapiens) (P06213 28-758 limits assumed): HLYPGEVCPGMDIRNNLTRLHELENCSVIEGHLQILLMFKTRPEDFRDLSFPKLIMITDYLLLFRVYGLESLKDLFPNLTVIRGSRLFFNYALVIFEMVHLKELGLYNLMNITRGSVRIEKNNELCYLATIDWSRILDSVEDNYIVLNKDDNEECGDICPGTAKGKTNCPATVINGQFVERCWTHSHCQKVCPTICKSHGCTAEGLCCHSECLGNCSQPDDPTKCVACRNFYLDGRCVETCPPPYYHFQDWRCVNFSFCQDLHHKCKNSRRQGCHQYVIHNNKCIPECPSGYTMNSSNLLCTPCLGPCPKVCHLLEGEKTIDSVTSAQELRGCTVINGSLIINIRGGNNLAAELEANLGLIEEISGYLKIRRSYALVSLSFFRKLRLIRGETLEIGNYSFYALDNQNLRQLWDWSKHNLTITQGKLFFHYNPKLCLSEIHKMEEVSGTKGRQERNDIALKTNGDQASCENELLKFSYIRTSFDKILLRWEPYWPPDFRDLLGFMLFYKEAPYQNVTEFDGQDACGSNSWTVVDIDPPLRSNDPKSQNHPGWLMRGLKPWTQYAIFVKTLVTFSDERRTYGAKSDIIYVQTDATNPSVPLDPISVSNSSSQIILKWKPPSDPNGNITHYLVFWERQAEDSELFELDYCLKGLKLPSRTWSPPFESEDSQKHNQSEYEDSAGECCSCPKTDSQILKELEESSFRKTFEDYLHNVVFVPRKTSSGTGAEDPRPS
Sequence of Insulin receptor (Homo sapiens) (P06213 763-1382 limits assumed): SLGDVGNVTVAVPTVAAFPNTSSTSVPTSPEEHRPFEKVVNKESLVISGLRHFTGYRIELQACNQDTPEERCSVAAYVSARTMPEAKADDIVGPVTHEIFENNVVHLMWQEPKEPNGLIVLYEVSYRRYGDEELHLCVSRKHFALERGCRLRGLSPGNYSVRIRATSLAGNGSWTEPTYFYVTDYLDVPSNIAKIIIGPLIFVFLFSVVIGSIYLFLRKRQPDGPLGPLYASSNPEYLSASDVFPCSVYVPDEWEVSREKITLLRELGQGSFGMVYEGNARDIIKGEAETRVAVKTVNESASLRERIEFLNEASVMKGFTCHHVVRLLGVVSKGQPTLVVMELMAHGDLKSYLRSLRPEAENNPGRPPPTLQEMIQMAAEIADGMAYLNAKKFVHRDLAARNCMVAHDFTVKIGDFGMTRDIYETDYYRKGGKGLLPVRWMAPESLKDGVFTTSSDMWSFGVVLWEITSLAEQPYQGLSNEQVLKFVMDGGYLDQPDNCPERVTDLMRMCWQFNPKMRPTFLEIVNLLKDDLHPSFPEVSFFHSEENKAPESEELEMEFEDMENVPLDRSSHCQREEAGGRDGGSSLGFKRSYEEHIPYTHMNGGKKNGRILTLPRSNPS

[17] = target: Serine/threonine-protein kinase 16 (Homo sapiens) (UniProt O75716); test: Binding affinity to wild-type human partial length STK16 (G11 to I305 residues) expressed in bacterial expression system assessed as residual binding level at 10 uM by Kinomescan method relative to control
Sequence of Serine/threonine-protein kinase 16 (Homo sapiens) (O75716 whole entry, the tested form may be a part): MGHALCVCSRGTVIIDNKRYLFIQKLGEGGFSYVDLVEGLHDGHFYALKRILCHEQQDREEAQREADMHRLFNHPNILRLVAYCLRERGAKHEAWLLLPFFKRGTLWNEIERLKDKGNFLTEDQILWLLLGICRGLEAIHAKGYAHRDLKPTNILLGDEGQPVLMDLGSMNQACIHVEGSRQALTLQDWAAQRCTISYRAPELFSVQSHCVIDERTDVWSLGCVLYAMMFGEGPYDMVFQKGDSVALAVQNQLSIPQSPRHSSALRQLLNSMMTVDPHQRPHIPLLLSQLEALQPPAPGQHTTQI

[18] = test system: Mast/stem cell growth factor receptor Kit (Homo sapiens), P10721 [V559D,T670I]; test: Binding affinity to human partial length KIT V559D/T670I double mutant (Y545 to D952 residues) expressed in bacterial expression system assessed as residual binding level at 10 uM by Kinomescan method relative to control
[19] = target: Ribosomal protein S6 kinase alpha-6 (Homo sapiens) (UniProt Q9UK32); test: Binding affinity to wild-type human partial length N-terminal RSK4 kinase domain 1 (M1 to E397 residues) expressed in mammalian expression system assessed as residual binding level at 10 uM by Kinomescan method relative to control
[20] = target: Tyrosine-protein kinase JAK1 (Homo sapiens) (UniProt P23458); test: Binding affinity to wild-type human partial length JAK1 JH2 pseudokinase domain (R537 to D855 residues) expressed in mammalian expression system assessed as residual binding level at 10 uM by Kinomescan method relative to control
Sequence of Tyrosine-protein kinase JAK1 (Homo sapiens) (P23458 whole entry, the tested form may be a part): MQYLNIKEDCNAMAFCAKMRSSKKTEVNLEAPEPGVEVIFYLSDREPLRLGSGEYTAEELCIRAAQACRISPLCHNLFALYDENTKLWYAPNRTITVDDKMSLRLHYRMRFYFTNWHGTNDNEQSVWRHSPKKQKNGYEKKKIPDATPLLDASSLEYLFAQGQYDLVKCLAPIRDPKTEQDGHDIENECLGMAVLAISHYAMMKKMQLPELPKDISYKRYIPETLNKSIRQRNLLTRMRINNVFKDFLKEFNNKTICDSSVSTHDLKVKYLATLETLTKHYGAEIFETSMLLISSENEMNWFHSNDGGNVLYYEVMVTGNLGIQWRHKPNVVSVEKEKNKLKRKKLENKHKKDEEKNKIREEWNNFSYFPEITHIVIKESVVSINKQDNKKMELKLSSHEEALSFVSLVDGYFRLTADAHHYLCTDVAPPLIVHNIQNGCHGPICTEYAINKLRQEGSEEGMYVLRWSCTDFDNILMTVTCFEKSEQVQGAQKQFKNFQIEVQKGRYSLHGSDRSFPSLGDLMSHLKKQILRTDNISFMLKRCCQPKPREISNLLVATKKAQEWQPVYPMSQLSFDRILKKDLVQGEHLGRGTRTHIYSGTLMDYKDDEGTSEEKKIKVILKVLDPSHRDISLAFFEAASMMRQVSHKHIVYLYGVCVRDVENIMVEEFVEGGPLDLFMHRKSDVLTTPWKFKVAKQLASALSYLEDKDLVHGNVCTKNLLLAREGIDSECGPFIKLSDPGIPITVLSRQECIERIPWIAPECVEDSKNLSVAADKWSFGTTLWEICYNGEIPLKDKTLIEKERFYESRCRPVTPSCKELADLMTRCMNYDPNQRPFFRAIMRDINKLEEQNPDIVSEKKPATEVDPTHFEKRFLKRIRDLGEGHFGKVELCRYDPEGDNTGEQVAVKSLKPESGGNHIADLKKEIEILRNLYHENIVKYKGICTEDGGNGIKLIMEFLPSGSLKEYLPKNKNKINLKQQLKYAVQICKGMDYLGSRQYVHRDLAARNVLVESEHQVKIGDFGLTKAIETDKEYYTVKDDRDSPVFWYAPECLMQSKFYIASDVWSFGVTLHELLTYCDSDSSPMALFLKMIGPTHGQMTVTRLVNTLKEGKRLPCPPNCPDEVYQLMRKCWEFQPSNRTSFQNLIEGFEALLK

[21] = test system: Epidermal growth factor receptor (Homo sapiens), P00533 [UNDEFINED MUTATION]; test: Binding affinity to human partial length EGFR L747-E749del/A750P mutant expressed in bacterial expression system assessed as residual binding level at 10 uM by Kinomescan method relative to control
[22] = target: Interleukin-1 receptor-associated kinase 4 (Homo sapiens) (UniProt Q9NWZ3); test: Binding affinity to wild-type human partial length IRAK4 (M1 to S460 residues) expressed in mammalian expression system assessed as residual binding level at 10 uM by Kinomescan method relative to control
[23] = target: Beta-adrenergic receptor kinase 1 (Homo sapiens) (UniProt P25098); test: Binding affinity to wild-type human full length GRK2 (M1 to L689 residues) expressed in mammalian expression system assessed as residual binding level at 10 uM by Kinomescan method relative to control
[24] = target: Tyrosine-protein kinase Fes/Fps (Homo sapiens) (UniProt P07332); test: Binding affinity to wild-type human partial length FES (I527 to R822 residues) expressed in bacterial expression system assessed as residual binding level at 10 uM by Kinomescan method relative to control

O=C(Nc1cc(-c2cn(CCNc3c4c(nc5ccccc35)CCCC4)nn2)ccn1)Nc1cccc2c1C1CCCCN1C2=O (racemic)
Activity [1]: 44%
Activity [2]: 9.5%
Activity [3]: 84%
Activity [4]: 52%
Activity [5]: 10%
Activity [6]: 91%
Activity [7]: 4%
Activity [8]: 47%
Activity [9]: 79%
Activity [10]: 19%
Activity [11]: 83%
Activity [12]: 73%
Activity [13]: 84%
Activity [14]: 23%
Activity [15]: 0%
Activity [16]: 17%
Activity [17]: 1.9%
Activity [18]: 3.4%
Activity [19]: 2.2%
Activity [20]: 36%
Activity [21]: 68%
Activity [22]: 93%
Activity [23]: 100%
Activity [24]: 92%
